In patent US20240285631A1, “METHODS OF TREATING VASCULAR MALFORMATIONS” (priority 2023, published 2024):
Entries after “also recorded” stand apart in the source; their conditions may differ.

Tested on: vascular malformations in Alk1EC^iKO pups
Test: Retinal vasculature analysis in Alk1EC^iKO pups (HHT type 2 model)
Type: in vivo, mouse
Description: FIG. 5A illustrates a timeline used for tamoxifen (Tx) injection and CDK4/6i treatment of Alk1EC^iKO pups. FIG. 5B illustrates representative images showing retinal vasculature labelled with IB4 from control, Alk1EC^iKO, and Alk1EC^iKO+CDK4/6i-treated P5 animals. Bar graphs showing (FIG. 5C) quantification of AV shunt number per retina, (FIG. 5D) vascular density, and (FIG. 5E) vascular progression. (N=8 to 10 retinas/group, at least 4 mice). Data are mean±SEM, One-way ANOVA, *p≤0.05, **p≤0.01). FIG. 5F illustrates a timeline used for Tx injection and CDK4/6i treatment of Alk1EC^iKO pups for blue latex dye perfusion experiments. FIG. 5G illustrates blue latex dye vascular perfusion in brains from control, Alk1EC^iKO, and Alk1EC^iKO+CDK4/6i-treated P7 animals. […] FIG. 5H illustrates the quantification of left middle cerebral artery (MCA) and basilar artery (BA) in control, Alk1EC^iKO, and Alk1EC^iKO+CDK4/6i-treated animals. FIG. 5I illustrates the quantification of the number of latex filled veins in control, Alk1EC^iKO, and Alk1EC^iKO+CDK4/6i-treated animals. (N=4 to 6 mice/group. Data are mean±SEM, one-way ANOVA with Holm-Šidàk's multiple comparison test, *p≤0.05, **p≤0.01, ***p<0.001). Scale bar (G): 4 mm.
About 50% of HHT patients harbor mutations in the Acvrl1 gene^1, which encodes for the ALK1 receptor. To validate the clinical relevance of the use of Palbociclib for the treatment of HHT, we crossed Cdh5Cre^ERT2 mice with Alk1^flox/flox mice (6-8-week-old) to generate an endothelial-specific inducible deletion of Alk1 (referred to as Alk1EC^iKO), which is an established preclinical mouse model of human HHT type 2^12,25. Neonatal Alk1EC^iKO pups received a single i.p. injection of tamoxifen at P3 to induce Alk1 gene deletion and were then treated with Palbociclib via oral gavage at P4, and their retinal vasculature was analyzed at P5 (FIG. 5A). […] Due to the relatively short survival time post-tamoxifen induction in Alk1EC^iKO mice (approximately 48 hours), our study is limited to a single Palbociclib injection, which represents a technical challenge in exploring additional treatments. […] Single Cell RNA sequencing analysis of Palbociclib effects on endothelial arteriovenous identity in Alk1EC^iKO mice.
With bulk RNAseq analysis, we further investigated the effects of Palbociclib on these pathways in vivo on P7 retinal ECs from control pups or those treated with anti-BMP9/10, with or without CDK4/6i, as outlined in FIG. 2A. […] We also investigated the potential role of FLT1, a decoy receptor for VEFG-A, in the mechanism of action of Palbociclib, by injecting i.p. FLT1 blocking antibodies in Alk1EC^iKO mice simultaneously with CDK4/6i treatment (FIG. 8G).
All animal protocols and procedures were approved by the University of Virginia Animal Care and Use Committee and complied with all ethical regulations. Cdh5Cre^ERT21Rha^43 and Alk1^flox/flox were gifted from Drs. Ralf Adams and Paul Oh, respectively. R26p-Fucci2 (Fucci2) (Accession #CDB0203T)^44 and C57bl/6 mice were purchased from Riken and Jax, respectively. Cdh5Cre^ERT2 mice were crossed with Alk1^flox/flox mice (6-8-week-old) to generate Alk1EC^iKO pups. Cre activity in Alk1EC^iKO was induced in pups at P3 via a single intraperitoneal (i.p.) injection of Tamoxifen (Tx; Sigma T5648, […] of 4 mg/ml, resuspended in 10% ethanol and 90% corn oil). Alk1^flox/flox littermates were used as controls. Alk1EC^iKO mice were crossed with Fucci2 mice to generate Alk1EC^iKO-Fucci2 pups.

[1] = tamoxifen P3, Palbociclib P4, P5

## CC(=O)c1c(C)c2cnc(Nc3ccc(N4CCNCC4)cn3)nc2n(C2CCCC2)c1=O [Palbociclib, 6-acetyl-8-cyclopentyl-5-methyl-2-[5-(1-piperazinyl)pyridine-2-ylamino]pyrido[2,3-d]pyrimidin-7(8H)-one]
Alk1^iECKO mice, Palbociclib alone, vs untreated
  AV shunt number per retina (FLT1 experiment): developed less AV shunts
Alk1^iECKO mice, Palbociclib plus i.p. FLT1 blocking antibodies (1.6 mg/kg)
  AV shunt number per retina with FLT1 blocking antibodies: numerous AV shunts, comparable to untreated
[1]
  vascular density at the front of the retinal vascular plexi: prevented the formation of hyperdense and disorganized vascular networks
  vascular progression: normalized vascular progression
Tamoxifen P3, Palbociclib oral gavage P4, retina at P5, vs untreated Alk1EC^iKO
  number of AVMs (AV shunts) per retina: significantly lower number of AVMs; also recorded: prevented the development of arterio-venous malformations
